Experimental findings from US20050282818A1, “Ubiquitin ligase inhibitors” (Rigel Pharmaceuticals, Inc., priority 2004, published 2005) are described below.

One experiment relates to H1299 cells. The experiment can be described thus: Cell proliferation PAD assay, H1299. Format: cell-based. The conditions noted are these: Homo sapiens, NCI-H1299, 3pt, 48 hours, read-out: H1299 3pt. The essentials: (§1)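 Cells plated at 2,000/well; compounds added 24 h later as 6.3-fold dilutions from a 10 mM master stock, diluted 500-fold into wells, in duplicate. After 48 h at 37 °C, 5% CO2, cells were formamide-fixed, DAPI-stained and imaged to count live, apoptotic and dead cells.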

The test system of another experiment is A549 cells. The experiment can be described thus: Cell proliferation PAD assay, A549. It is filed as cell-based. The conditions noted are these: Homo sapiens, 3pt, 48 hours, read-out: A549 3pt. The essentials:
as §1

The next experiment addresses T1, ROC1/CUL1 (Homo sapiens, UniProt P62877+Q13616).
T1 construct: made in house
Description: ROC1/CUL1 ubiquitin ligase assay (SCF assay). It is filed as biochemical. The protocol:
Inhibition of ubiquitin ligase activity of E1+E2+E3 was measured using the protocol as described in WO 01/75145 with E3 as the ROC1/CUL1, ROC1/CUL2, or ROC2/CUL5 complex.
The wells of nickel-substrate 96-well plates (Pierce Chemical) are blocked with 100 μl of 1 casein/phosphate buffered saline (PBS) for 1 hour at room temperature, then washed with 200 μl of PBST (0.1% Tween-20 in PBS) 3 times. To each well is added the following Flag-ubiquitin (see above) reaction solution: 62.5 mM Tris pH 7.5, 6.25 mm MgCl2, 0.75 mM DTT, 2.5 mM ATP, 2.5 mM NaF1, 2.5 nM Okadaic acid, 100 ng Flag-ubiquitin (made as described above).
The buffer solution is brought to a final volume of 80 μl with Milipore-filtered water, followed by the addition of 10 μl DMSO.
To the above solution is then added 10 μl of ubiquitination enzymes in 20 mM Tris buffer, pH 7.5, and 5% glycerol. E2-Ubch5c and E3-His ROC1/Cul1, ROC1/CUL2, and ROC2/CUL5 are made as described in WO 01/75145. E1 is obtained commercially (Affiniti Research Products, Exeter, U. K.). The following amounts of each enzyme are used for these assays: 5 ng/well of E1; […] E2; and 100 ng/well His-E3. Varying amounts of compounds according to the invention are added and the reaction allowed to proceed at room temperature for 1 hour.
Following the ubiquitination reaction, the wells are washed with 200 μl of PBST 3 times. For measurement of the enzyme-bound ubiquitin, 100 gel of Mouse anti-Flag (1:10,000) and anti-Mouse Ig-HRP (1:15, 000) in PBST are added to each well and allowed to incubate at room temperature for 1 hour. The wells are then washed with 200 μl of PBST 3 times, followed by the addition of 100 μl of luminol substrate (1/5 dilution). Luminescence for each well is then measured using a fluorimeter.
Table 2 below illustrates the inhibitory activity of the compounds of the invention determined by the TRAF6/Uev1A/Ubc13 assay as well as in the ICAM, APC and the ROC1/CUL1 Ubiquitin Ligase Assay (SCF Assay). The IC50 values were determined using a various concentrations of the compounds.

The target of another experiment is T2, TRAF6/Uev1A/Ubc13 (Homo sapiens, UniProt Q9Y4K3).
T2 sequence (Q9Y4K3 1-522): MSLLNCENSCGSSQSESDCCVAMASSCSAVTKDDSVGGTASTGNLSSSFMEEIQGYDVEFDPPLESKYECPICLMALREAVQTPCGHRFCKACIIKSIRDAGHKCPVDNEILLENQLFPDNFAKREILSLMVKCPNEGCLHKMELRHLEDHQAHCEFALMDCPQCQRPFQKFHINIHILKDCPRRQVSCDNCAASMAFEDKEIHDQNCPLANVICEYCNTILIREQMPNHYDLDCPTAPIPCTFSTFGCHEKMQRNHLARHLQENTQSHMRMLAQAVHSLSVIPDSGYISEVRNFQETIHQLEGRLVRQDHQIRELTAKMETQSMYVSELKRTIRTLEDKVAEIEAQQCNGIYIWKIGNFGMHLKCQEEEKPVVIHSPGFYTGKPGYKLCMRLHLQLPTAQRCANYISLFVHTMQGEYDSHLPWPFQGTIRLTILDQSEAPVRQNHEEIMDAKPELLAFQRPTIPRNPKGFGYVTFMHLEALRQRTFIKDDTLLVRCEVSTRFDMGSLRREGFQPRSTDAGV
The experiment can be described thus: TRAF6/Uev1A/Ubc13 plate-based ubiquitin ligase assay. It is filed as biochemical. The essentials: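 Ligase activity was read as luminescence from anti-Flag/HRP detection of Flag-ubiquitin bound to casein-blocked Ni-plates alongside His-ubiquitin after a 1 h room-temperature reaction. Buffer: 62.5 mM Tris pH 7.5, 6.25 mM MgCl2, 1.0 mM DTT, 2 μM ATP; E1, Uev1a/Ubc13 and TRAF6 added last to start. IC50s derived across compound concentrations.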

The subject of experiment [1] is ICAM-1 expression in A549 cells. The experiment can be described thus: ICAM assay (IL-1 induced ICAM-1/CD54 expression in A549 cells). Format: cell-based, human. The conditions noted are these: Homo sapiens, A549, ICAM assay. The gist of the method: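 A549 cells, 10,000/well, preincubated with compound 1 h at 37° C, then stimulated with IL-1 (4 μl of 25 ng/ml added) for 4 h. Surface ICAM-1 detected by anti-CD54 plus anti-mouse IgG staining for 1 h, luminescent read-out after PBS washes.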

pIC50: −log10 of the molar value. Where only a bound is given, the exact number is not on record here.

T1 sequence (P62877 whole entry): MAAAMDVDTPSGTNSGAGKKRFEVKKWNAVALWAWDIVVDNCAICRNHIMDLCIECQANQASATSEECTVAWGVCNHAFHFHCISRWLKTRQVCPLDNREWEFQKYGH
T1 sequence (Q13616 whole entry): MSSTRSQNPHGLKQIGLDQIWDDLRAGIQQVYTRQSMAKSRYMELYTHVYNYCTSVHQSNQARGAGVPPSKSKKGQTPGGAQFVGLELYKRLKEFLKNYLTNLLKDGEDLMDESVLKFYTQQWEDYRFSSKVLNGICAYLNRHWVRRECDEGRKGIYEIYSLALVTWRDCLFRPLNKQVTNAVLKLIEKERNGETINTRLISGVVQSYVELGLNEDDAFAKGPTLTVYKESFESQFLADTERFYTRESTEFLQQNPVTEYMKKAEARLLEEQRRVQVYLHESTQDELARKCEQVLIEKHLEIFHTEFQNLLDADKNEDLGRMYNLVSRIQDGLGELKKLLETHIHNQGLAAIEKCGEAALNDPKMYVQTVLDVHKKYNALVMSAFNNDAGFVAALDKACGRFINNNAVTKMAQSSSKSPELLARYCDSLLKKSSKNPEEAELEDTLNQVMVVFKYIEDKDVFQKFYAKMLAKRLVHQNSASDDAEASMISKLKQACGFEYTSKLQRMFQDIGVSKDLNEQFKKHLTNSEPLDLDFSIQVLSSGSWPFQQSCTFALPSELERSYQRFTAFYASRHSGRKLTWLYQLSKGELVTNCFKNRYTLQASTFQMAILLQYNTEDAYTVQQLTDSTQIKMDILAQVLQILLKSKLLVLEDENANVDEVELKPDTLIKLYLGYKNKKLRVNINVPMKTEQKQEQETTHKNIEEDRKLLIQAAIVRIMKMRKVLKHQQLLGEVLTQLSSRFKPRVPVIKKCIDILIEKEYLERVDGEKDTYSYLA

Turning to `Cc1cccc(N2CCN(S(=O)(=O)c3ccc(Sc4cccc5cccnc45)c4nonc34)CC2)n1` [compound 196, 8-[(7-{[4-(6-methylpyndin-2-yl)piperazin-1-yl]sulfonyl}-2,1,3-benzoxadiazol-4-yl)thio]quinoline], the pIC50 in the experiment with H1299 cells is at most 4.70; in the experiment with A549 cells it was at most 4.70; against ROC1/CUL1, at most 4.70; against TRAF6/Uev1A/Ubc13, 4.70 to 6.00.
Regarding `CC1CC(C)CN(S(=O)(=O)c2ccc(Sc3cccc4cccnc34)c3nonc23)C1` (stereo not drawn) [compound 197, 8-({7-[(3,5-dimethylpipendin-1-yl)sulfonyl]-2,1,3-benzoxadiazol-4-yl}thio)quinoline], the pIC50 in the experiment with H1299 cells is 4.70 to 6.00; with A549 cells, 4.70 to 6.00; against ROC1/CUL1 it was at most 4.70; at TRAF6/Uev1A/Ubc13, 4.70 to 6.00.
In the case of `Cc1ccc(N2CCN(S(=O)(=O)c3c(N4CCN(c5cccc(C)n5)CC4)ccc4nonc34)CC2)nc1` [compound 203, 5-[4-(6-methylpyridin-2-yl)piperazin-1-yl]-4-{[4-(5-methylpyridin-2-yl)piperazin-1-yl]sulfonyl}-2,1,3-benzoxadiazole], the pIC50 is at most 4.70 in experiment [1], at most 4.70 on ROC1/CUL1 and 4.70 to 6.00 at TRAF6/Uev1A/Ubc13.
Consider `N#Cc1ccc(N2CCN(c3ccc4nonc4c3S(=O)(=O)N3CCN(c4ccc(C#N)cn4)CC3)CC2)nc1` [compound 210, 6-[4-({5-[4-(5-cyanopyridin-2-yl)piperazin-1-yl]-2,1,3-benzoxadiazol-4-yl}sulfonyl)piperazin-1-yl]nicotinonitrile], for which the pIC50 in the experiment with H1299 cells is 4.70 to 6.00; in the experiment with A549 cells, at most 4.70; against ROC1/CUL1, at most 4.70; at TRAF6/Uev1A/Ubc13 it was at most 4.70.
As to `N#Cc1ccc(N2CCN(S(=O)(=O)c3c(Sc4cccc5cccnc45)ccc4nonc34)CC2)nc1` [compound 212, 6-(4-{[5-(quinolin-8-ylthio)-2,1,3-benzoxadiazol-4-yl]sulfonyl}piperazin-1-yl)nicotinonitrile], the pIC50 in the experiment with H1299 cells was 4.70 to 6.00; in the experiment with A549 cells it was 4.70 to 6.00; against ROC1/CUL1 it was at most 4.70; at TRAF6/Uev1A/Ubc13 it was 4.70 to 6.00.
On to `CC1CN(S(=O)(=O)c2c(Sc3cccc4cccnc34)ccc3nonc23)CC(C)O1` (stereo not drawn) [compound 216, 8-({4-[(2,6-dimethylmorpholin-4-yl)sulfonyl]-2,1,3-benzoxadiazol-5-yl}thio)quinoline], for which the pIC50 at ROC1/CUL1 is at most 4.70; at TRAF6/Uev1A/Ubc13, 4.70 to 6.00.
Turning to `O=[N+]([O-])c1ccc(Nc2ccc3[nH]ncc3c2)c2nonc12` [compound 222, N-1H-indazol-5-yl-7-nitro-2,1,3-benzoxadiazol-4-amine], the pIC50 was 4.70 to 6.00 with H1299 cells, at most 4.70 in the experiment with A549 cells, at most 4.70 against ROC1/CUL1 and 4.70 to 6.00 at TRAF6/Uev1A/Ubc13.
With `O=[N+]([O-])c1ccc(Nc2ccc3cn[nH]c3c2)c2nonc12` [compound 223, N-1H-indazol-6-yl-7-nitro-2,1,3-benzoxadiazol-4-amine], the pIC50 against ROC1/CUL1 is at most 4.70; at TRAF6/Uev1A/Ubc13, 4.70 to 6.00.
Consider `O=S(=O)(c1ccc(Sc2ccc(O)cc2)c2nonc12)N1CCC(O)(c2ccc(Cl)cc2)CC1` [compound 228, 4-(4-chlorophenyl)-1-({7-[(4-hydroxyphenyl)thio]-2,1,3-benzoxadiazol-4-yl}sulfonyl)piperidin-4-ol], for which the pIC50 was at most 4.70 in the experiment on H1299 cells, at most 4.70 in the experiment on A549 cells, at most 4.70 on ROC1/CUL1 and above 6.00 at TRAF6/Uev1A/Ubc13.
Regarding `COC(=O)c1ccc(NS(=O)(=O)c2ccc(Sc3ccncc3)c3nonc23)cc1` [compound 256, methyl 4-({[7-(pyridin-4-ylthio)-2,1,3-benzoxadiazol-4-yl]sulfonyl}amino)benzoate], the pIC50 at ROC1/CUL1 and at TRAF6/Uev1A/Ubc13 was at most 4.70 throughout.
`O=S(=O)(c1cccc2nsnc12)N1CCC2(CC1)OCc1ccccc12` [compound 257, 1′-(2,1,3-benzothiadiazol-4-ylsulfonyl)-3H-spiro[2-benzofiiran-1,4′-piperidine]]: the pIC50 in the experiment on H1299 cells, with A549 cells, against ROC1/CUL1 and at TRAF6/Uev1A/Ubc13 was at most 4.70 throughout.
With `O=S(=O)(Nc1ccc(F)c(F)c1)c1ccc(Nc2ccc(F)c(F)c2)c2nonc12` [compound 264, N-(3,4-difluorophenyl)-7-[(3,4-difluorophenyl)amino]-2,1,3-benzoxadiazole-4-sulfonamide], the pIC50 at ROC1/CUL1 and against TRAF6/Uev1A/Ubc13 was at most 4.70 in each case.
As for `CN1CCN(S(=O)(=O)c2ccc(Sc3ccc(O)cc3)c3nonc23)CC1` [compound 266, 4-({7-[(4-methylpiperazin-1-yl)sulfonyl]-2,1,3-benzoxadiazol-4-yl}thio)phenol], the pIC50 at ROC1/CUL1 and against TRAF6/Uev1A/Ubc13 was at most 4.70 throughout.
Take `CN1CCN(S(=O)(=O)c2ccc(Sc3cccc4ccccc34)c3nonc23)CC1` [compound 267, 4-[(4-methylpiperazin-1-yl)sulfonyl]-7-(1-naphthylthio)-2,1,3-benzoxadiazole]: the pIC50 against ROC1/CUL1 and on TRAF6/Uev1A/Ubc13 was at most 4.70 throughout.
Take `COc1ccccc1Sc1ccc(S(=O)(=O)N2CCN(C)CC2)c2nonc12` [compound 270, 4-[(2-methoxyphenyl)thio]-7-[(4-methylpiperazin-1-yl)sulfonyl]-2,1,3-benzoxadiazole]: the pIC50 against ROC1/CUL1 and against TRAF6/Uev1A/Ubc13 was at most 4.70 throughout.
As for `O=C(Nc1ccc(N2CCN(c3ncc(C(F)(F)F)cc3Cl)CC2)c2nonc12)c1cccs1` [compound 281, N-(7-{4-[3-chloro-5-(trifluoromethyl)pyridin-2-yl]piperazin-1-yl}-2,1,3-benzoxadiazol-4-yl)thiophene-2-carboxamide], the pIC50 against ROC1/CUL1 and on TRAF6/Uev1A/Ubc13 was 4.70 to 6.00 in each case.
For `O=[N+]([O-])c1ccc(N2CCC3(CC2)OCc2ccccc23)c2nonc12` [compound 284, 1′-(7-nitro-2,1,3-benzoxadiazol-4-yl)-3H-spiro[2-benzofuran-1,4′-piperidine]], the pIC50 with H1299 cells is at most 4.70; in the experiment on A549 cells, at most 4.70; on ROC1/CUL1, at most 4.70; at TRAF6/Uev1A/Ubc13, 4.70 to 6.00.
Regarding `O=[N+]([O-])c1ccc(N2CCC(Oc3ccccn3)CC2)c2nonc12` [compound 287, 4-nitro-7-[4-(pyridin-2-yloxy)piperidin-1-yl]-2,1,3-benzoxadiazole], the pIC50 against ROC1/CUL1 and at TRAF6/Uev1A/Ubc13 was at most 4.70 in each case.
For the molecule `O=[N+]([O-])c1ccc(N2CCC(Sc3ccccn3)CC2)c2nonc12` [compound 288, 4-nitro-7-[4-(pyridin-2-ylthio)piperidin-1-yl]-2,1,3-benzoxadiazole], the pIC50 at ROC1/CUL1 and against TRAF6/Uev1A/Ubc13 was at most 4.70 in each case.
In the case of `O=S(=O)(c1ccc(Sc2ccc3ccccc3n2)c2nonc12)N1CCC(O)(c2ccc(Cl)cc2)CC1` [compound 485, 4-(4-chlorophenyl)-1-({7-(quinolin-2ylthio)-2,1,3-benzoxadiazol-4-yl}sulfonyl)piperidin-4-ol], the pIC50 at ROC1/CUL1 and against TRAF6/Uev1A/Ubc13 was at most 4.70 in each case.
